Measured values: patent publication US20260200944A1, “NOVEL IRAK4 INHIBITOR AND COMPOUND FOR INHIBITING AND DEGRADING IRAK4 PROTEIN, AND PREPARATION METHOD THEREFOR AND USE THEREOF” (DOVETREE MEDICINES UNUS, INC., priority 2022, published 2026)

Target: T1, IRAK4 kinase protein (Homo sapiens, UniProt Q9NWZ3)
T1 sequence (Q9NWZ3 1-460): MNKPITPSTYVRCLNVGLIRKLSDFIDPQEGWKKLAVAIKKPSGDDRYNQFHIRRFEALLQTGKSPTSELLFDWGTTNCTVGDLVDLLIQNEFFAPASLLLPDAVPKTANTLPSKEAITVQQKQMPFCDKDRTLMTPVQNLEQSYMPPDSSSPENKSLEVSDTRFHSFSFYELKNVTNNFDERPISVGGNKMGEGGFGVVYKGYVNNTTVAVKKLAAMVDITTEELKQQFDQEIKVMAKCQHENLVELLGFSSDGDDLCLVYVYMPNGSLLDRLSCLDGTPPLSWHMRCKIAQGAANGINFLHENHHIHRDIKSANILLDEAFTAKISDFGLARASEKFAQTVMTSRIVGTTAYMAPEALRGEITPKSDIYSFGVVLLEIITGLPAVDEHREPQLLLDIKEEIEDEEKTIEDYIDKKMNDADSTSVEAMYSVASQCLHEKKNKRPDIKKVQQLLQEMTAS
Experiment: IRAK4 kinase inhibition assay (Cisbio HTRF KinEASE-STK S1 kit)
Format: biochemical
Settings: IRAK4 10 nM, ATP 200 μM, substrate 1 μM, 37° C. for 2 h, read-out: IRAK4 inhibitory activity IC50
Experimental: In this assay, the Cisbio HTRF KinEASE-STK SI kit (62S1PEB) was used. The assay/detection buffer, STK Substrate 1-biotin, Streptavidin-XL665, and STKAntibody-Crypatete were all contained in the kit.
After the compound/DMSO was added to a 384-well plate (PerkinElmer 6008280) using Echo 665, 5 μL of 2-fold reaction concentration of IRAK4 kinase protein (final concentration: 10 nM) dissolved with an assay buffer [1 volume of 5× kinase buffer+20 mM magnesium chloride (Sigma) solution+1 mM DTT (Alfa Aesar) solution+4 volumes of deionized water] was added. The shallow well plate was sealed, shaken, centrifuged at 1000 rpm for 1 min, and then incubated at room temperature for 5 min. Then, 5 μL of 2-fold reaction concentration of a 1:1 mixture of STK Substrate 1-biotin (final concentration: 1 μM) and ATP (Sigma A1852) (final concentration: 200 μM) formulated with the assay buffer was added. The shallow well plate was sealed, shaken, centrifuged at 1000 rpm for 1 min, and then incubated at 37° C. for 2 h, followed by the addition of 10 μL of a 1:1 mixture of Streptavidin-XL665 (final concentration: 62.5 nM) and STK-antibody-cryptate dissolved with a detection buffer. The shallow well plate was sealed, shaken, centrifuged at 1000 rpm for 1 min, and then incubated at room temperature for 1 h, and then the value at the wavelength of 620 nm/665 nm was read using a microplate reader. The data were analyzed using Prism 9.3 software, and the IC50 value of IRAK4 kinase inhibition was fitted using a four parameter Logistic equation.

Row | SMILES | IC50
1 | FC(F)c1nn(C2CCCCC2)c2cnc(-n3ccc4ccc(N5CCOCC5)nc43)cc12 [Compound C1] | 5 to 10 µM
2 | N#Cc1cnc2c(-c3cc4c(C(F)F)nn(C5CCCCC5)c4cn3)cnn2c1 [Compound C3i] | 1 to 5 µM
3 | NC(=O)c1cnn2c(-c3cc4c(C(F)F)nn(C5CCCCC5)c4cn3)ccc2c1 [Compound C4ii] | < 1 µM
4 | N#Cc1cnc2c(ccn2-c2cc3c(C(F)F)nn(C4CCCCC4)c3cn2)c1 [Compound C5i] | > 10 µM
5 | NC(=O)c1cnc2c(ccn2-c2cc3c(C(F)F)nn(C4CCCCC4)c3cn2)c1 [Compound C5ii] | 1 to 5 µM
